Laboratory results from patent US10874683B2, “N4-hydroxycytidine and derivatives and anti-viral uses related thereto” (Emory University, priority 2016, dated 2020).
Like-named read-outs stand apart in the source and are kept apart here.

How the values were obtained:
VEEV [1] = test: microbe, parasite or virus in culture; type: cell-based; conditions: Venezuelan equine encephalitis virus, HeLa; for inhibition at 10 µM: read-out: Viral Inh. 10 uM; for inhibition at 50 µM: read-out: Viral Inh. 50 uM
VEEV [2] = test: microbe, parasite or virus in culture; type: cell-based; conditions: Venezuelan equine encephalitis virus, Astrocyte; for inhibition at 10 µM: read-out: Viral Inh. 10 uM; for inhibition at 50 µM: read-out: Viral Inh. 50 uM
MERV = MERV (MOI 0.4) viral inhibition in VERO; type: cell-based; conditions: for inhibition at 10 µM: read-out: Viral Inh. 10 uM; for inhibition at 50 µM: read-out: Viral Inh. 50 uM
VERO = test: Cell viability, VERO (MERV screen); type: cell-based

SMILES	inhibition at 10 µM (VEEV [1]) [%]	inhibition at 50 µM (VEEV [1]) [%]	Cell Viability 10 uM (HeLa)	Cell Viability 50 uM (HeLa)	inhibition at 10 µM (VEEV [2]) [%]	inhibition at 50 µM (VEEV [2]) [%]	Cell Viability 10 uM (Astrocytes)	Cell Viability 50 uM (Astrocytes)	inhibition at 10 µM (MERV) [%]	inhibition at 50 µM (MERV) [%]	Cell Viability 10 uM (VERO)	Cell Viability 50 uM (VERO)	further results
CCCCCCCOC(=O)ONc1ccn([C@@H]2O[C@H](CO)[C@H](O)C2O)c(=O)n1 (stereo partly drawn) [drawing 87]	100	100	116% ± 20% (n = 4)	85% ± 8% (n = 4)	–	–	–	–	–	–	–	–	EC50 (VEEV [1]): 0.57 µM
CC(C)OC(=O)[C@H](C)NP(=O)(OC[C@H]1O[C@@H](n2ccc(NO)nc2=O)C(O)[C@H]1O)Oc1ccccc1 (stereo partly drawn) [drawing 88]	73	100	137% ± 16% (n = 4)	134% ± 16% (n = 4)	–	–	–	–	–	–	–	–	EC50 (VEEV [1]): 16.2 µM
O=c1nc(NO)c(F)cn1[C@@H]1O[C@H](CO)[C@H](O)C1O (stereo partly drawn) [drawing 89]	61	98	55% ± 4% (n = 4)	36% ± 2% (n = 4)	–	–	–	–	–	–	–	–	–
CCCCCCCNC(=O)ONc1ccn([C@@H]2O[C@H](CO)[C@H](O)C2O)c(=O)n1 (stereo partly drawn) [drawing 90]	93	100	151% ± 16% (n = 4)	126% ± 7% (n = 4)	–	–	–	–	–	–	–	–	EC50 (VEEV [1]): 6 µM
O=c1nc(NO)ccn1[C@@H]1O[C@H](CO)[C@H](O)C1O (stereo partly drawn) [drawing 91]	–	–	–	–	99	100	98% ± 12% (n = 3)	86% ± 5% (n = 3)	–	–	–	–	–
CCCCCCCOC(=O)ONc1ccn([C@@H]2O[C@H](CO)[C@H](O)C2O)c(=O)n1 (stereo partly drawn) [drawing 92]	–	–	–	–	94	100	99% ± 9% (n = 3)	94% ± 10% (n = 3)	–	–	–	–	–
CC(C)OC(=O)[C@H](C)NP(=O)(OC[C@H]1O[C@@H](n2ccc(NO)nc2=O)C(O)[C@H]1O)Oc1ccccc1 (stereo partly drawn) [drawing 93]	–	–	–	–	49	96	102% ± 16% (n = 3)	100% ± 17% (n = 3)	–	–	–	–	–
CCCCCCCNC(=O)ONc1ccn([C@@H]2O[C@H](CO)[C@H](O)C2O)c(=O)n1 (stereo partly drawn) [drawing 95]	–	–	–	–	51	37	98% ± 12% (n = 3)	85% ± 19% (n = 3)	–	–	–	–	–
O=c1nc(NO)ccn1[C@@H]1O[C@H](CO)[C@H](O)C1O (stereo partly drawn) [drawing 96]	–	–	–	–	–	–	–	–	99	100	75% ± 6% (n = 4)	47% ± 3% (n = 4)	–
CCCCCCCOC(=O)ONc1ccn([C@@H]2O[C@H](CO)[C@H](O)C2O)c(=O)n1 (stereo partly drawn) [drawing 97]	–	–	–	–	–	–	–	–	99	99	84% ± 8% (n = 4)	58% ± 2% (n = 4)	–
CC(C)OC(=O)[C@H](C)NP(=O)(OC[C@H]1O[C@@H](n2ccc(NO)nc2=O)C(O)[C@H]1O)Oc1ccccc1 (stereo partly drawn) [drawing 98]	–	–	–	–	–	–	–	–	29	85	103% ± 14% (n = 4)	102% ± 36% (n = 4)	–
CCCCCCCNC(=O)ONc1ccn([C@@H]2O[C@H](CO)[C@H](O)C2O)c(=O)n1 (stereo partly drawn) [drawing 100]	–	–	–	–	–	–	–	–	86	98	118% ± 15% (n = 4)	91% ± 39% (n = 4)	–
